Assay results reported in patent publication EP0279757A1, “Kit for use as an agent for the selective destruction of transformed cells” (priority 1987, dated 1988).

How the values were obtained:
Assay type in all cases: cell-based
cellules transformées = experiment: Selective destruction of transformed cells by micro-injection into one target cell followed by activation at 400 nm; conditions: set of 100 transformed cells, activation at 400 nm for 5 to 10 minutes
Text: Pour être utilisée conformément à l'objectif visé, la susbtance (a) doit être acheminée par toute technique appropriée dans au moins l'une des cellules transformées à détruire, à partir de laquelle elle passe de manière spécifique dans les autres cellules transformées du même site, par l'intermédiaire des "gap junctions". La technique préférée actuellement est la micro-injection, bien connue de l'homme du métier et décrite en détail dans l'article de Cancer Res. cité plus haut.
Dans la pratique, il apparaît avantageux de micro-injecter la substance (a) ou des solutions salines (par exemple en milieu physiologique) de la substance (a), à raison d'un volume pouvant ne pas dépasser environ 10% par rapport au volume de la cellule-cible, par des micro-injections fractionnées et espacées entre elles, par exemple à des intervalles de 10 minutes, ou par une micro-injection en continu.
Il est préférable de respecter une attente entre la dernière micro-injection ou la fin de la micro-injection en continu et l'entrée en fonction du moyen pour l'activation de la susbtance toxique (a), afin que le passage de cette dernière dans l'ensemble des cellules transformées du site traité soit effectif. […]

[1] = system: cellules BALB/c 3T3 transfectées par pEJ-ras-H (cellules transformées); experiment: Killing of transformed cells by micro-injection followed by near-UV irradiation (400 nm); conditions: micro-injection into transformed cells, irradiation at a frequency close to UV; checked by Trepan blue staining or microscopy
Text: Cet exemple concerne la destruction de cellules transformées, par micro-injection de Lucifer Yellow CH, suivie d'une irradiation à 400 nm.
Pour la production de cellules transformées, on a utilisé des cellules BALB/c 3T3, ce système de transformation assurant la production in situ de cellules transformées sur une couche mono-cellulaire normale, et simule ainsi la cancérogenèse in vivo.
Des cellules BALB/c 3T3 ont été transfectées par un oncogène activé que l'on a isolé d'un carcinome de vessie humaire, le pEJ-ras-H; par cette opération, on a obtenu des cellules transformées. […] Lorsque de nombreuses cellules sont tuées dans un foyer transformé, le foyer entier se décolle du fond de la boîte de Pétri. L'élimination de cellules se vérifie habituellement par coloration au "Trepan blue" mais peut également être confirmée par observation attentive au microscope : ces cellules ne montrent pas de capacité de prolifération; un grand nombre d'entre elles sont décollées.

[2] = system: cellules épithéliales de foie de rat transformées (IAR 27 ou IAR 6-1) et non transformées (IAR 20); experiment: Co-culture of transformed and non-transformed cells: micro-injection, dye diffusion and killing after near-UV exposure
Text: On a utilisé aussi des cellules épithéliales de foie de rat transformées et non transformées. Puisqu'à l'heure actuelle, il n'existe pas de mé-thode d'induction in situ de foyer épithélial transformée par des cancé-rogènes, on a cocultivé articifiellement des cellules épithéliales de foie de rat transformées et non transformées, de sorte que les deux types de cellules puissent être en contact. Lorsque les cellules transformées (IAR 27 ou IAR 6-1) sont cultivées avec des cellules non transformées (IAR 20), la frontière entre les deux types de cellules est clairement visible à cause de la différence de leur aspect morphologique.

[3] = system: foyers transformés de cellules BALB/c 3T3; experiment: Stimulation of gap junction communication by an exogenous compound and its effect on selective elimination
Procedure: L'efficacité d'élimination a également été augmentée par stimulation de la communication des "gap junctions" par un composé exogène : après addition de dibutyryl c-AMP (1mM) dans une boîte de Pétri qui contient des foyers transformés de cellules BALB/c 3T3, on a observé que les communications intercellulaires sont stimulées dans les foyers transformés et dans la monocouche non transformée; cependant, les deux types de cellules ne communiquent pas entre eux.

| Molecule | destruction de cellules transformées (cellules transformées) | élimination sélective des cellules transformées [1] | mort des cellules-cibles ([2]; after exposure to near-UV radiation) | diffusion du colorant ([2]; micro-injection in co-culture of IAR 27 or IAR 6-1 with IAR 20) | élimination sélective dans les cellules transformées ([3]; 1mM added to the Petri dish, elimination by Lucifer Yellow CH micro-injection and irradiation) | communications intercellulaires ([3]; 1mM added to the Petri dish, in transformed foci and in the non-transformed monolayer, the two cell types do not communicate with each other) | spécificité de communication intercellulaire ([3]; prolonged treatment, transformed phenotypes then began to disappear) |
| --- | --- | --- | --- | --- | --- | --- | --- |
| Lucifer Yellow CH | destruction sélective complète | on a pu les tuer | la mort des cellules | diffusion sélective du colorant dans les cellules du même type | – | – | – |
| CCCC(=O)Nc1ncnc2c1ncn2[C@@H]1O[C@@H]2COP(=O)(O)O[C@H]2[C@H]1OC(=O)CCC [dibutyryl c-AMP] | – | – | – | – | plus facilement | stimulées | suppression de la spécificité de communication |
